GI50 data for one compound are collected here from ChEMBL document CHEMBL1158880, “New cembranoid diterpenes and a geranylgeraniol derivative from the common Caribbean sea whip Eunicea succinea” (1997).

Molecules are shown by their SMILES.

Holding throughout (format): functional
The nature of assay [1]: Cytotoxicity against human Hs 578T cells.
In the next assay the test system is SNB-75. Put plainly: Cytotoxicity against human SNB75 cells.
The test system of a further assay is M14. The experiment in a line: Cytotoxicity against human M14 cells.

What is called GI50 is the concentration at which growth is held to half of that of the control. The low end stands for more potent growth inhibition, the high end for less potent growth inhibition. For the compound `C=C(C)[C@H]1CC/C(C)=C/CC[C@@]2(C)O[C@@H]2CC/C(COC(C)=O)=C\[C@@H]1O` [ASPERDIOL ACETATE], the GI50 was 8.28 µM in assay [1], 625 nM in the assay on SNB-75 and 8.28 µM with M14.
